Reference: ChEMBL document CHEMBL1131330, “d-Fused [1]benzazepines with selective in vitro antitumor activity: synthesis and structure-activity relationships” (1998)

How the values were obtained:
Format in all cases: functional
786-0 [1] = test: Compound was tested for antitumor activity against 786-0 renal cancer cell line(molar concentration that inhibits 50% net cell growth).; details: Homo sapiens
ACHN [2] = test: Compound was tested for antitumor activity against ACHN renal cancer cell line(molar concentration that inhibits 50% net cell growth).; details: Homo sapiens
TK-10 [3] = test: Compound was tested for antitumor activity against TK-10 renal cancer cell line(molar concentration leading to 50% net cell death); details: Homo sapiens
ACHN [4] = test: Compound was tested for antitumor activity against ACHN renal cancer cell line(molar concentration leading to 50% net cell death).; details: Homo sapiens
786-0 [5] = test: Compound was tested for antitumor activity against 786-0 renal cancer cell line(molar concentration leading to 50% net cell death); details: Homo sapiens, read-out: Log LC50 (the source's name) (converted)
TK-10 [6] = test: Compound was tested for antitumor activity against TK-10 renal cancer cell line(molar concentration that inhibits 50% net cell growth); details: Homo sapiens

In the case of `O=C1Cc2c(-c3ccc(Br)cc3)cc(-c3ccccc3)nc2-c2ccccc2N1`, the GI50 (786-0 [1]) is reported as 1.62 µM, the GI50 (ACHN [2]) is reported as 3.98 µM and the LC50 (concentration causing 50% net cell death) (TK-10 [3]) is reported as 2.24 µM. The LC50 (50% net cell death) (ACHN [4]) was 50.1 µM, the CC50 (786-0 [5]) was 9.55 µM and the GI50 (TK-10 [6]) was 0.186 µM.

With `O=C1Cc2c(-c3ccccc3)cc(-c3cccc(Cl)c3)nc2-c2ccccc2N1` the GI50 (786-0 [1]) was 0.977 µM, the GI50 (ACHN [2]) was 1.15 µM and the LC50 (concentration causing 50% net cell death) (TK-10 [3]) was 17.4 µM. For the same compound, the LC50 (50% net cell death) (ACHN [4]) was 24.5 µM, the CC50 (786-0 [5]) was 5.37 µM and the GI50 (TK-10 [6]) was 1.48 µM.

`SC1=Nc2ccccc2-c2nc(-c3cccc(Cl)c3)cc(-c3ccccc3)c2C1` gave a GI50 (786-0 [1]) of 0.977 µM, a GI50 (ACHN [2]) of 0.617 µM and an LC50 (concentration causing 50% net cell death) (TK-10 [3]) of 9.55 µM. It also gave an LC50 (50% net cell death) (ACHN [4]) of 19.1 µM, a CC50 (786-0 [5]) of 4.79 µM and a GI50 (TK-10 [6]) of 0.437 µM.

`O=C1Cc2c(-c3ccccc3)cc(-c3ccccc3)nc2-c2cc(Br)ccc2N1` showed a GI50 (786-0 [1]) of 0.631 µM, a GI50 (ACHN [2]) of 1.26 µM and an LC50 (concentration causing 50% net cell death) (TK-10 [3]) of 9.12 µM. For the same compound, the LC50 (50% net cell death) (ACHN [4]) was 15.5 µM, the CC50 (786-0 [5]) was 4.79 µM and the GI50 (TK-10 [6]) was 0.427 µM.

Compound `O=C1Cc2c(-c3ccccc3)cc(-c3ccccc3)nc2-c2ccccc2N1` has a GI50 (786-0 [1]) of 4.17 µM, a GI50 (ACHN [2]) of 4.07 µM and an LC50 (concentration causing 50% net cell death) (TK-10 [3]) greater than 100 µM. It also gave an LC50 (50% net cell death) (ACHN [4]) of 70.8 µM, a CC50 (786-0 [5]) greater than 100 µM and a GI50 (TK-10 [6]) of 2.45 µM.

For `SC1=Nc2ccccc2-c2nc(-c3ccccc3)cc(-c3ccc(Br)cc3)c2C1`, the GI50 (786-0 [1]) was 0.631 µM, the GI50 (ACHN [2]) was 0.871 µM and the LC50 (concentration causing 50% net cell death) (TK-10 [3]) was 7.76 µM. It also gave an LC50 (50% net cell death) (ACHN [4]) of 5.89 µM, a CC50 (786-0 [5]) of 4.47 µM and a GI50 (TK-10 [6]) of 1.78 µM.

`SC1=Nc2ccc(Br)cc2-c2nc(-c3ccccc3)cc(-c3ccccc3)c2C1` was tested, and the GI50 (786-0 [1]) was 1.17 µM, the GI50 (ACHN [2]) was 0.741 µM and the LC50 (concentration causing 50% net cell death) (TK-10 [3]) was 18.6 µM. For the same compound, the LC50 (50% net cell death) (ACHN [4]) was 8.51 µM, the CC50 (786-0 [5]) was 7.08 µM and the GI50 (TK-10 [6]) was 1.23 µM.
